Results on 4 compounds are retold here after patent US20220151292A1, “NICOTINE POUCH COMPOSITION” (NCP NextGen A/S, priority 2020, published 2022).

Assay type in all cases: physicochemical
Series [1] is described as follows: Release experiment: nicotine released from NPR (16%) in water with varying equivalents of MgCl2 (Example 6C). The note with it: nicotine 28 mg/L, 25 degrees Celsius, 100 rpm, HPLC. How it is done:
The release experiment was performed by adding NPR (16%) and varying equivalents of MgCl2 to a volume of water corresponding to a nicotine concentration of 28 mg/L. The equivalents of MgCl2 are relative to nicotine. The temperature of the water was 25 degrees Celsius throughout the experiment and stirring of 100 rpm was applied throughout the experiment. pH was measured at experiment start and end. The pH was in all experiments below 7.0 at both the start and end of the experiment.
(§1) A relative low nicotine concentration is used in order to reduce the impact of equilibrium on both the release rate and effective release of nicotine from the ion-exchange resin.
(§2) Samples were taken out at varying timepoints and analyzed for nicotine content using standard HPLC. The result is presented as percentage of nicotine released.

A short description of series [2]: Release experiment: nicotine released from nicotine premixes of varying nicotine content with 1 equivalent of CaCl2 (Example 6D). The note with it: nicotine premix, 1 equivalent CaCl2, water, nicotine 28 mg/L, 25 degrees Celsius, 150 rpm, HPLC. How it is done: The release experiment was performed by adding nicotine premix having varying content of nicotine and 1 equivalent of CaCl2 to a volume of water, whereby a corresponding nicotine concentration of 28 mg/L is obtained. The equivalent of CaCl2 is relative to nicotine. The temperature of the water was 25 degrees Celsius throughout the experiment and stirring of 150 rpm was applied throughout the experiment. pH was measured at experiment start and end. The pH was in all experiments below 7.0 at both the start and end of the experiment.
as §1, §2

Series [3] is described as follows: Release experiment: nicotine released from NPR (16%) in water with varying salts (CaCl2, NaCl) and equivalents (Example 6A). The following applies: NPR (16%) in 900 mL water, nicotine 28 mg/L, 25 degrees Celsius, 100 rpm, HPLC.
The nature of series [4]: Release experiment: nicotine released from NPR (16%) in water with varying equivalents of CaCl2 (Example 6B). The following applies: nicotine 28 mg/L, 25 degrees Celsius, 100 rpm, HPLC. How it is done: The release experiment was performed by adding NPR (16%) and varying equivalent of CaCl2 to a volume of water corresponding to a nicotine concentration of 28 mg/L. The equivalents of CaCl2 are relative to nicotine. The temperature of the water was 25 degrees Celsius throughout the experiment and stirring of 100 rpm was applied throughout the experiment. pH was measured at experiment start and end. The pH was in all experiments below 7.0 at both the start and end of the experiment.
as §1, §2

Series [5] in a line: Release experiment: nicotine released from NPR (16%) in water with 1 equivalent of AlCl3 (Example 6E). The following applies: 1 equivalent AlCl3, water, nicotine 28 mg/L, 25 degrees Celsius, 150 rpm, HPLC. As to the method: The release experiment was performed by adding NPR (16%) and 1 equivalent of AlCl3 to a volume of water corresponding to a nicotine concentration of 28 mg/L. The equivalents are relative to nicotine. The temperature of the water was 25 degrees Celsius throughout the experiment and stirring of 150 rpm was applied throughout the experiment. pH was measured at experiment start and end. The pH was in all experiments below 7.0 at both the start and end of the experiment.
as §1, §2

Take `[Cl-].[Cl-].[Mg+2]` [MgCl2]: the “effect of MgCl2 on release of nicotine from NPR” value in series [1] was “significantly increases the release of nicotine”.
On to `[Ca+2].[Cl-].[Cl-]` [CaCl2], for which the “effect of CaCl2 on release of nicotine from premixes” value in series [2] is on record as “significantly increases the release of nicotine”. In addition, the “effect of the salt on release of nicotine from NPR” value in series [3] is on record as “significantly increases the release of nicotine”. Further, the “effect of CaCl2 on release of nicotine from NPR” value in series [4] is “significantly increases the release of nicotine”.
As for `[Cl][Al]([Cl])[Cl]` [AlCl3], the “effect of AlCl3 on release of nicotine from NPR” value in series [5] is given as “significantly increases the release of nicotine”.
For the compound `[Cl-].[Na+]` [NaCl, reference compound], in series [3], the “effect of the salt on release of nicotine from NPR” value is “much lower effect on the release of nicotine”.
